Legend:
[1] = tested on: Oct4; experiment: Luciferase reporter assay in NCCIT-Oct4 cells; assay type: cell-based, human; details: histone demethylase inhibitors, 48 h
Procedure: The ability of the lead compound to induce Oct4 at translational level was tested in a luciferase reporter cell line in human embryonic carcinoma NCCIT cells driven by Oct4 response elements (NCCIT-Oct4). The compound lead to a nearly 10-fold induction of Oct4 at 10 nM compared to untreated cells (FIG. 1B). Consequently, the lead compound was named “Oct4 inducing compound 3” (O4I3).
Luciferase reporter assay was performed using Beatle Juice Kit (PJK, Germany) according to the manufacturer's instruction. NCCIT-Oct and NCCIT-Nanog reporter cells were plated into a 24-well plate (100,000 cells/well) for 24 h. Cells were treated with compounds as indicated and harvested with luciferase lysis buffer (25 mM Tris phosphate buffer pH=7.8, 4 mM EGTA, 1% Triton X-100, 10% glycerol and 2 mM fresh DTT, filtered through 0.45 μm sterile filter) at 37° C. for 15 min. The protein concentration was determined by Bradford assay (Sigma, Germany). 100 μL reaction mixture containing luciferin and ATP was added to 20 μL cell lysis in a white plate (Gibco, Germany), incubated for 5 min and measured by a luminometer plate-reader. The activity was determined as percent luminous intensity of treated cells over control cells from at least five-independent experiments.

[2] = tested on: Oct4; experiment: Luciferase reporter assay in NCCIT-Oct4 cells; assay type: cell-based, human; details: 100 nM, NCCIT-Oct4 cells
[3] = tested on: human fibroblasts; experiment: qRT-PCR of reprogramming associated genes in human fibroblasts; assay type: cell-based; parameters: expression of OCT4, SOX2, and E-Cadherin in HFs: dose or concentration left out as unconfirmed; details: JIB-04 treated fibroblasts
Procedure: Analyzing the effects of O4I3 on human fibroblasts, the activation of reprogramming associated genes, including an about 10-fold induction of Oct4, Nanog and Lin28, and an about 100-fold increase of Sox2 and E-Cadherin mRNA levels was detected. In particular, expression of several essential genes for reprogramming is equal to those in pluripotent stem cells, such as Esrrb, FGF2 and Sall4 (FIG. 12).
Quantitative reverse-transcription real-time-PCR was performed using a Light Cycler 96 (Roche, Germany) following the manufacturer's protocol. Briefly, total RNA was isolated from cells using TRIzol (Qiagen, Germany) or NucleoSpin®RNA Plus (Macherey-Nagel, Germany). The same amount of RNA was used to reverse-transcriptional synthesize cDNA by using random primers ProtoScript® First Strand cDNA Synthesis Kit (NEB, Germany). qPCR was performed using the SYBR Green PCR master mix (qPCRBIO SyGreen Mix Lo-Rox, Nippon Genetics, Germany) and the primer pairs indicated below (MWG, Eurofins, Germany). Actin was used as an endogenous control. Data were normalized to the value of untreated cells showing the mean±SD of quadruplicates and are representative of at least three independent experiments.

[4] = tested on: promoter of Oct4; experiment: ChIP-qPCR of H3K4Me3 at the promoter of Oct4 in reprogramming-resistant fibroblasts; assay type: cell-based, human; details: HF4, in combination with OSKM overexpression
Excerpt: The importance of active tri-methylation of histone H3 lysine 4 (H3K4Me3) in promoting transcription factors binding to an ‘open’ chromatin state and thereby initiation of reprogramming is known in the art. In good agreement, the inventors found the abundance of H3K4Me3 in O4I3-treated reprogramming-resistant fibroblasts by immunostaining (FIG. 14) and immunoblotting (FIG. 5B). To directly study if O4I3 facilitated the binding of H3K4Me3 to the promoter of Oct4, a CHIP-qPCR experiment was performed.
In reprogramming-resistant HF4, the level of H3K4Me3 at the promoter of OCT4 was increased by OSKM, but was still nearly 1,000-fold lower than that in PSCs (FIG. 19A). […] However, a clear influence on H3K4 methylation was not observed in the presence of KDM5B-, KDM5C-, or KDM5D-siRNA (FIG. 19A). […] Indeed, the reprogramming efficiency is negatively correlated with the expression of KDM5A in 11 HFs (FIG. 19D). Moreover, KDM5A siRNA increased the global level of H3K4Me3 in a dose-dependent manner (FIG. 19E). Of note, the alternation in the occupation of H3K27Me3 at the promoter of OCT4 was more refractory to chemical inhibition or genetic repression of KDM5s in the inventors' experiments (FIG. 19B). […]

[5] = tested on: OCT4-promoter; experiment: Luciferase reporter assay in HEK-OCT4 cells; assay type: cell-based
Procedure: In an effort to find such chemical structures able to induce pluripotency, a high-throughput screening (HTS) was performed. The screen was based on cellular luciferase reporter assays under the control of the promoter activity of a pluripotency-associated transcription factor (Oct4) in HEK293 cells.
The inventors adopted Hantzsch thiazole synthesis (FIG. 20A) and produced a series of new O4I2-ester derivatives (FIG. 20B). Their activities were measured in three luciferase report cell lines, namely HEK-OCT4, driven by the activation of OCT4-promoter, and NCCIT-OCT4 and NCCIT-NANOG, whose intensities are controlled by endogenous OCT4 and NANOG respectively. […] Carboxylesterase 1 (CES1) is an enzyme majorly contributing to ester-to-acid conversion.

SMILES	induction of OCT4 expression in NCCIT-OCT4 reporter cell line [1]	Oct4 inducing activity as compared to the activity of O4I3 (101) [2]	also measured
CC(C)c1c(-c2ccccc2)[nH]c2c(C#N)cnn2c1=O [CPI-455]	3 fold	–	–
Cc1ccc2nc(-c3ccc(F)cc3)cn2c1 [Compound 102, 2-(4-fluorophenyl)-6-methyl-imidazo[1,2-a]pyridine]	–	increased the activity	–
Cc1ccc2nc(-c3ccc(Cl)cc3)cn2c1 [Compound 103, 2-(4-chlorophenyl)-6-methyl-imidazo[1,2-a]pyridine]	–	increased the activity	–
Cc1ccc2nc(-c3ccc(Br)cc3)cn2c1 [Compound 104, 2-(4-bromophenyl)-6-methyl-imidazo[1,2-a]pyridine]	–	increased the activity	–
Cc1ccc2nc(-c3ccc([N+](=O)[O-])cc3)cn2c1 [Compound 105, 6-methyl-2-(4-nitrophenyl)imidazo[1,2-a]pyridine]	–	significantly reduced the induction	–
COc1ccc(-c2cn3cc(C)ccc3n2)cc1 [Compound 106, 2-(4-methoxyphenyl)-6-methyl-imidazo[1,2-a]pyridine]	–	significantly reduced the induction	–
Cc1ccc2nc(-c3ccc(O)cc3)cn2c1 [Compound 107, 4-(6-methylimidazo[1,2-a]pyridin-2-yl)phenol]	–	significantly reduced the induction	–
Cc1ccc2nc(-c3ccc(C#N)cc3)cn2c1 [Compound 108, 4-(6-methylimidazo[1,2-a]pyridin-2-yl)benzonitrile]	–	significantly reduced the induction	–
Cc1ccc2nc(-c3ccccc3)cn2c1 [Compound 109, 6-methyl-2-phenyl-imidazo[1,2-a]pyridine]	–	not affected	–
CCOC(=O)CCNc1cc(N2CCc3ccccc3CC2)nc(-c2ccccn2)n1 [GSK-J4]	not	–	–
Clc1ccc(N/N=C(\c2ccccc2)c2ccccn2)nc1 [JIB-04, reference compound]	5 fold	–	expression of OCT4, SOX2, and E-Cadherin in HFs [3]: induction; levels of H3K4Me3 at the promoter of OCT4 [4]: significantly elevated
O=C(O)c1csc(Nc2ccc(Cl)cc2)n1 [O4I2-COON, 2-(4-chlorophenylamino)thiazole-4-carboxylic acid]	–	–	activity in HEK-OCT4 cells [5]: inactive
CN(C)NC(=O)CCC(=O)O [daminozide]	not	–	–

— patent US20200062719A1, “Application of Imidazopyridine Derivatives in Regenerative Medicine” (University of Heidelberg, priority 2018, published 2020)
